Assay results: ChEMBL document CHEMBL3045770, “Design and synthesis of some thieno[2,3-c]pyridazine derivatives of expected anticancer activity” (2013)

Legend:
Type in all cases: functional
K562 = assay: Cytotoxicity against Homo sapiens (human) K562 cells after 48 hr by SRB assay; settings: K562, 48 h
NCI-H460 = assay: Cytotoxicity against Homo sapiens (human) NCI-H460 cells after 48 hr by SRB assay; settings: NCI-H460, 48 h
OVCAR-4 = assay: Cytotoxicity against Homo sapiens (human) OVCAR4 cells after 48 hr by SRB assay; settings: OVCAR-4, 48 h
SW-620 = assay: Cytotoxicity against Homo sapiens (human) SW620 cells after 48 hr by SRB assay; settings: SW-620, 48 h
A549 = assay: Cytotoxicity against Homo sapiens (human) A549 cells after 48 hr by SRB assay; settings: A549, 48 h
SN12C = assay: Cytotoxicity against Homo sapiens (human) SN12C cells after 48 hr by SRB assay
HCT-15 = assay: Cytotoxicity against Homo sapiens (human) HCT15 cells after 48 hr by SRB assay; settings: HCT-15, 48 h
NCI-H226 = assay: Cytotoxicity against Homo sapiens (human) NCI-H226 cells after 48 hr by SRB assay; settings: NCI-H226, 48 h
SK-MEL-28 = assay: Cytotoxicity against Homo sapiens (human) SK-MEL-28 cells after 48 hr by SRB assay; settings: SK-MEL-28, 48 h
BT-549 = assay: Cytotoxicity against Homo sapiens (human) BT549 cells after 48 hr by SRB assay; settings: BT-549, 48 h
DU-145 = assay: Cytotoxicity against Homo sapiens (human) DU145 cells after 48 hr by SRB assay; settings: DU-145, 48 h
OVCAR-5 = assay: Cytotoxicity against Homo sapiens (human) OVCAR5 cells after 48 hr by SRB assay; settings: OVCAR-5, 48 h
UACC-257 = assay: Cytotoxicity against Homo sapiens (human) UACC257 cells after 48 hr by SRB assay; settings: UACC-257, 48 h
[1] = read-out: LC50 (the source's name)

Question: Which results are given for Oc1c(-c2nnc(-c3ccc(Cl)cc3)o2)sc2nnc(-c3ccccc3)c(-c3ccccc3)c12?
Answer: GI50 (K562): 4.17 µM; TGI (K562): 18.3 µM; CC50 (K562; [1]): 0.0183 µM; GI50 (NCI-H460): 3.15 µM; TGI (NCI-H460): 8.07 µM; CC50 (NCI-H460; [1]): 0.0183 µM; GI50 (OVCAR-4): 4.75 µM; TGI (OVCAR-4): 18.3 µM; CC50 (OVCAR-4; [1]): 0.0183 µM; GI50 (SW-620): 4.56 µM; TGI (SW-620): 6.61 µM; GI50 (A549): 4.65 µM; TGI (A549): 14.8 µM; CC50 (A549; [1]): 0.0183 µM; GI50 (SN12C): 4.65 µM; TGI (SN12C): 17.6 µM; GI50 (HCT-15): 2.27 µM; TGI (HCT-15): 18.3 µM; GI50 (NCI-H226): 3.06 µM; TGI (NCI-H226): 18.3 µM; CC50 (NCI-H226; [1]): 0.0183 µM; GI50 (SK-MEL-28): 1.14 µM; TGI (SK-MEL-28): 18.3 µM; CC50 (SK-MEL-28; [1]): 0.0183 µM; GI50 (BT-549): 1.01 µM; TGI (BT-549): 18.3 µM; GI50 (DU-145): 6.22 µM; TGI (DU-145): 18.3 µM; GI50 (OVCAR-5): 2.18 µM; TGI (OVCAR-5): 18.3 µM; CC50 (OVCAR-5; [1]): 0.0183 µM; GI50 (UACC-257): 6.16 µM; TGI (UACC-257): 15 µM; CC50 (UACC-257; [1]): 0.0183 µM
